Assay results: PubChem BioAssay (NCI)
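How tested: cells in 96-well plates exposed to compound for 48 hours at five concentrations. Here, GI50 denotes the concentration required for 50% inhibition of growth. The concentration for full growth arrest is given as TGI.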

Tested on: PC-3 prostate
Experiment: NCI-60 cell line screen, 48 h

Q: Which TGI does the source give for `Brc1ccc2c(-c3nc(-c4c[nH]c5ccc(Br)cc45)cs3)c[nH]c2c1` here?
A: The TGI was 17.9 µM.

Q: `O=C1NNC(=O)C2C3c4ccccc4C(c4ccccc43)C12` (centres undefined) was tested. Which TGI did it give?
A: The TGI was over 100 µM.

Q: How did the TGI turn out when `O=c1[nH]nc(-c2cccc(Br)c2)[nH]1` was run?
A: Its TGI is over 100 µM.

Q: Which TGI does the source give for `CCOC(=O)C(Cl)(NC(=O)c1ccc(F)cc1)C(F)(F)F` (centres undefined) here?
A: The TGI was over 100 µM.

Q: Which TGI does the source give for `COc1ccccc1N1C(=O)/C(=C\c2cccc(Oc3ccccc3)c2)SC1c1ccccc1` (centres undefined) here?
A: Its TGI is over 100 µM.

Q: Which TGI does the source give for `Cc1ccc(S(=O)(=O)OC2C3OC(C)(C)OC3OC2C(c2cc(O)c3c(c2O)C(=O)c2ccccc2C3=O)c2cc(O)c3c(c2O)C(=O)c2ccccc2C3=O)cc1` (centres undefined) here?
A: Its TGI is over 10 µM.

Q: `N#Cc1nc(COCCOCc2ccccc2)oc1N` was tested. Which TGI did it give?
A: Its TGI is over 100 µM.

Q: `CC1CN=C(Nc2ccc(S(N)(=O)=O)cc2)S1` (centres undefined) was tested. Which TGI did it give?
A: The TGI was over 10 µM.

Q: With `COC1(OC)C2(Cl)CCC1(Cl)C(OC(C)=O)C2` (centres undefined) as the molecule, how does the TGI read?
A: Its TGI is over 100 µM.

Q: For `O=P(O)(O)CN1CCN(CP(=O)(O)O)CCN(CP(=O)(O)O)CCN(CP(=O)(O)O)CC1`, which TGI is on record?
A: Its TGI is over 100 µM.

Q: Which TGI does the source give for `CC(C)NC(=O)OCc1c(COC(=O)NC(C)C)c(-c2ccc[n+](COC(=O)CC(C)(C)C)c2)n2c1CCC2` here?
A: Its TGI is over 100 µM.

Q: Which TGI does the source give for `C=C(C)[C@@H](C(=O)OC)N1C(=O)c2ccccc2C1=O` here?
A: The TGI was over 100 µM.

Q: Which TGI does the source give for `CO/N=C(\C(=O)Nc1cncs1)c1csc(NC(c2ccccc2)(c2ccccc2)c2ccccc2)n1` here?
A: Its TGI is over 10 µM.

Q: For `CCCN(CCCCC(NC(C)=O)C(=O)NCc1ccccc1)C(=O)N(CCCl)N=O` (centres undefined), which TGI is on record?
A: The TGI was over 100 µM.

Q: How did the TGI turn out when `O=C(CNc1ccc(Cl)cc1)Nn1c(-c2ccccc2)nc2ccccc2c1=O` was run?
A: The TGI was 25.4 µM.

Q: Which TGI does the source give for `COc1cc(C2c3cc4c(cc3[C@H](OCCN(C)C)[C@@H]3COC(=O)C23)OCO4)cc(OC)c1O` (some centres undefined) here?
A: The TGI was 81.1 µM.

Q: How did the TGI turn out when `CCCCn1c(C)c(C(=O)OCC)c2cc(OCc3ccc(C(=O)Nn4c(C)ccc4C)cc3)c(Br)cc21` was run?
A: The TGI was over 100 µM.

Q: `O=C(CC(=O)N(C(=O)c1ccccc1)c1ccc(Cl)cc1)N/N=C\c1cc(N=Nc2ccccc2Cl)ccc1O` was tested. Which TGI did it give?
A: Its TGI is over 100 µM.

Q: How did the TGI turn out when `Cc1cccc2c(N)c3cccc(C(=O)NCCCNCCN)c3nc12` was run?
A: Its TGI is 35.3 µM.

Q: `CN1CCC(OC(=O)Oc2ccccc2)(c2ccccc2)CC1` was tested. Which TGI did it give?
A: The TGI was 45.8 µM.

Q: Which TGI does the source give for `CCOC(=O)/C(O)=C(/C=NC(=S)c1ccncc1)C(=O)OCC` here?
A: Its TGI is over 100 µM.

Tested on: TK-10 renal
Experiment: NCI-60 cell line screen, 48 h

Q: For `Cc1nc(N)c(N2CCNCC2)c(=O)[nH]1`, which TGI is on record?
A: Its TGI is over 100 µM.

Q: `Brc1ccc2c(-c3nc(-c4c[nH]c5ccc(Br)cc45)cs3)c[nH]c2c1` was tested. Which TGI did it give?
A: The TGI was 17.9 µM.

Q: Which TGI does the source give for `O=C1NNC(=O)C2C3c4ccccc4C(c4ccccc43)C12` (centres undefined) here?
A: The TGI was over 100 µM.

Q: Which TGI does the source give for `O=c1[nH]nc(-c2cccc(Br)c2)[nH]1` here?
A: The TGI was over 100 µM.

Q: How did the TGI turn out when `CCOC(=O)C(Cl)(NC(=O)c1ccc(F)cc1)C(F)(F)F` (centres undefined) was run?
A: The TGI was over 100 µM.

Q: How did the TGI turn out when `COc1ccccc1N1C(=O)/C(=C\c2cccc(Oc3ccccc3)c2)SC1c1ccccc1` (centres undefined) was run?
A: Its TGI is over 100 µM.

Q: `Cc1ccc(S(=O)(=O)OC2C3OC(C)(C)OC3OC2C(c2cc(O)c3c(c2O)C(=O)c2ccccc2C3=O)c2cc(O)c3c(c2O)C(=O)c2ccccc2C3=O)cc1` (centres undefined) was tested. Which TGI did it give?
A: Its TGI is over 10 µM.

Q: `N#Cc1nc(COCCOCc2ccccc2)oc1N` was tested. Which TGI did it give?
A: The TGI was over 100 µM.

Q: `CC1CN=C(Nc2ccc(S(N)(=O)=O)cc2)S1` (centres undefined) was tested. Which TGI did it give?
A: Its TGI is over 100 µM.

Q: How did the TGI turn out when `COC1(OC)C2(Cl)CCC1(Cl)C(OC(C)=O)C2` (centres undefined) was run?
A: Its TGI is over 100 µM.

Q: For `O=P(O)(O)CN1CCN(CP(=O)(O)O)CCN(CP(=O)(O)O)CCN(CP(=O)(O)O)CC1`, which TGI is on record?
A: Its TGI is over 100 µM.

Q: For `CC(C)NC(=O)OCc1c(COC(=O)NC(C)C)c(-c2ccc[n+](COC(=O)CC(C)(C)C)c2)n2c1CCC2`, which TGI is on record?
A: The TGI was over 100 µM.

Q: Which TGI does the source give for `C=C(C)[C@@H](C(=O)OC)N1C(=O)c2ccccc2C1=O` here?
A: Its TGI is over 100 µM.

Q: For `CO/N=C(\C(=O)Nc1cncs1)c1csc(NC(c2ccccc2)(c2ccccc2)c2ccccc2)n1`, which TGI is on record?
A: Its TGI is over 10 µM.

Q: `CCCN(CCCCC(NC(C)=O)C(=O)NCc1ccccc1)C(=O)N(CCCl)N=O` (centres undefined) was tested. Which TGI did it give?
A: The TGI was over 100 µM.

Q: How did the TGI turn out when `O=C(CNc1ccc(Cl)cc1)Nn1c(-c2ccccc2)nc2ccccc2c1=O` was run?
A: Its TGI is 30.5 µM.

Q: `COc1cc(C2c3cc4c(cc3[C@H](OCCN(C)C)[C@@H]3COC(=O)C23)OCO4)cc(OC)c1O` (some centres undefined) was tested. Which TGI did it give?
A: Its TGI is 17.9 µM.

Q: `CCCCn1c(C)c(C(=O)OCC)c2cc(OCc3ccc(C(=O)Nn4c(C)ccc4C)cc3)c(Br)cc21` was tested. Which TGI did it give?
A: The TGI was over 100 µM.

Q: How did the TGI turn out when `O=C(CC(=O)N(C(=O)c1ccccc1)c1ccc(Cl)cc1)N/N=C\c1cc(N=Nc2ccccc2Cl)ccc1O` was run?
A: The TGI was over 100 µM.

Q: How did the TGI turn out when `Cc1cccc2c(N)c3cccc(C(=O)NCCCNCCN)c3nc12` was run?
A: The TGI was 51.7 µM.

Q: How did the TGI turn out when `CN1CCC(OC(=O)Oc2ccccc2)(c2ccccc2)CC1` was run?
A: Its TGI is 37.7 µM.

Q: Which results are given for `CCOC(=O)/C(O)=C(/C=NC(=S)c1ccncc1)C(=O)OCC`?
A: GI50: > 100 µM; TGI: > 100 µM

Tested on: HT29 colon
Experiment: NCI-60 cell line screen, 48 h

Q: For `Cc1nc(N)c(N2CCNCC2)c(=O)[nH]1`, which TGI is on record?
A: Its TGI is over 100 µM.

Q: Which TGI does the source give for `Brc1ccc2c(-c3nc(-c4c[nH]c5ccc(Br)cc45)cs3)c[nH]c2c1` here?
A: Its TGI is 3.61 µM.

Q: How did the TGI turn out when `O=C1NNC(=O)C2C3c4ccccc4C(c4ccccc43)C12` (centres undefined) was run?
A: The TGI was over 100 µM.

Q: For `O=c1[nH]nc(-c2cccc(Br)c2)[nH]1`, which TGI is on record?
A: Its TGI is over 100 µM.

Q: For `CCOC(=O)C(Cl)(NC(=O)c1ccc(F)cc1)C(F)(F)F` (centres undefined), which TGI is on record?
A: Its TGI is over 100 µM.
